A short description of data set [1]: Antiproliferative activity against human U87 cells after 48 hrs by MTT assay. It counts as functional, cell-based, U-87MG ATCC. As to conditions: U-87 MG; call rule not given here.
Data set [2] relates to A549. Nature of the data set: Antiproliferative activity against human A549 cells after 48 hrs by MTT assay. It counts as functional, cell-based. As to conditions: A549, 48 h.
The next data set relates to HepG2. Nature of the data set: Antiproliferative activity against human HepG2 cells after 48 hrs by MTT assay. It is filed as functional, cell-based. Conditions: HepG2, 48 h.
In a further data set the test system is HeLa. Nature of the data set: Antiproliferative activity against human HeLa cells after 48 hrs by MTT assay. It is filed as functional, cell-based.
Data set [3] deals with T1, Solute carrier family 2, facilitated glucose transporter member 1 (Homo sapiens, UniProt P11166).
T1 sequence (P11166 whole entry): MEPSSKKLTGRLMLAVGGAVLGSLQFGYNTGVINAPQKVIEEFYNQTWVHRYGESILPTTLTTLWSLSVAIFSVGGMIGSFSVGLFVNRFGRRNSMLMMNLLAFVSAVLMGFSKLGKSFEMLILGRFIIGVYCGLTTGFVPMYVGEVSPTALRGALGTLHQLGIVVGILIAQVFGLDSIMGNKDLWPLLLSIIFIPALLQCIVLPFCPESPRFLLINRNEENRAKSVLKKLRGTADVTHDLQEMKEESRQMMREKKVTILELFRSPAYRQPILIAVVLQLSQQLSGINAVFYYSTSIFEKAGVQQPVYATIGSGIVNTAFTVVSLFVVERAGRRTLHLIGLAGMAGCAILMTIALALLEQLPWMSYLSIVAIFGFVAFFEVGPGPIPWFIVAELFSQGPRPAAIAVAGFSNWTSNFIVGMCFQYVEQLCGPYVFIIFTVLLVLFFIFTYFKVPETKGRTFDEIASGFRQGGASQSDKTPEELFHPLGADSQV
Nature of the data set: Substrate activity at GLUT1 in human A549 cells assessed cellular uptake at 20 uM after 8 hrs by HPLC analysis relative to control. As to conditions: a549, 8 h. It is filed as ADME, cell-based.

The target of data set [4] is T1, Solute carrier family 2, facilitated glucose transporter member 1. Nature of the data set: Substrate activity at GLUT1 in human A549 cells assessed cellular uptake at 20 uM after 8 hrs in presence of 50 mM GLUT1 inhibitor EDG by HPLC analysis relative to control. It is filed as ADME, cell-based. Conditions: a549, 8 h.
Data set [5] deals with A549. Nature of the data set: Cell cycle arrest in human A549 cells assessed as accumulation at G0/G1 phase at 24 uM after 48 hrs by propidium iodide staining based flow cytometric analysis (reference value: 42.86%). It is filed as functional.
Data set [6] relates to A549. Nature of the data set: Cell cycle arrest in human A549 cells assessed as accumulation at G2/M phase at 16 uM after 48 hrs by propidium iodide staining based flow cytometric analysis (reference value: 2.29%). It counts as functional.
Data set [7] concerns A549. In words: Cell cycle arrest in human A549 cells assessed as accumulation at G0/G1 phase at 16 uM after 48 hrs by propidium iodide staining based flow cytometric analysis (reference value: 42.86%). It counts as functional.
Data set [8] concerns A549. Nature of the data set: Cell cycle arrest in human A549 cells assessed as accumulation at G0/G1 phase at 8 uM after 48 hrs by propidium iodide staining based flow cytometric analysis (reference value: 42.86%). It is filed as functional.
In data set [9] the test system is A549. In words: Induction of apoptosis in human A549 cells assessed as necrotic cells at 8 uM after 48 hrs by annexin V-FITC/propidium iodide staining-based flow cytometric method (reference value: 0.13%). It counts as functional.
The test system of data set [10] is A549. Nature of the data set: Cell cycle arrest in human A549 cells assessed as accumulation at S phase at 24 uM after 48 hrs by propidium iodide staining based flow cytometric analysis (reference value: 54.85%). It is filed as functional.
Data set [11] has as its system A549. Nature of the data set: Induction of apoptosis in human A549 cells assessed as live cells at 8 uM after 48 hrs by annexin V-FITC/propidium iodide staining-based flow cytometric method (reference value: 93.6%). It counts as functional.
In data set [12] the test system is A549. Nature of the data set: Potency index, ratio of gefitinib IC50 to compound IC50 against human A549 cells. It counts as functional.
Data set [13] has as its system A549. Nature of the data set: Antimigratory activity against human A549 cells assessed as reduction in cell migration towards wound area after 48 hrs by phase contrast microscopic method. It counts as functional, cell-based.
Data set [14] concerns A549. In words: Induction of apoptosis in human A549 cells assessed as live cells at 16 uM after 48 hrs by annexin V-FITC/propidium iodide staining-based flow cytometric method (reference value: 93.6%). It counts as functional.
Data set [15] relates to A549. Nature of the data set: Cell cycle arrest in human A549 cells assessed as accumulation at S phase at 8 uM after 48 hrs by propidium iodide staining based flow cytometric analysis (reference value: 54.85%). It counts as functional.
Data set [16] relates to A549. Nature of the data set: Induction of apoptosis in human A549 cells assessed as early apoptotic cells at 8 uM after 48 hrs by annexin V-FITC/propidium iodide staining-based flow cytometric method (reference value: 3.87%). It is filed as functional.
Data set [17] has as its system A549. In words: Cell cycle arrest in human A549 cells assessed as accumulation at G2/M phase at 24 uM after 48 hrs by propidium iodide staining based flow cytometric analysis (reference value: 2.29%). It counts as functional.
The subject of data set [18] is A549. In words: Cell cycle arrest in human A549 cells assessed as accumulation at G2/M phase at 8 uM after 48 hrs by propidium iodide staining based flow cytometric analysis (reference value: 2.29%). It counts as functional.
Data set [19] relates to A549. In words: Induction of apoptosis in human A549 cells assessed as necrotic cells at 16 uM after 48 hrs by annexin V-FITC/propidium iodide staining-based flow cytometric method (reference value: 0.13%). It counts as functional.
The target of data set [20] is T1, Solute carrier family 2, facilitated glucose transporter member 1. Nature of the data set: Substrate activity at GLUT1 in human A549 cells assessed cellular uptake at 20 uM after 8 hrs in presence of 50 mM D-glucose by HPLC analysis relative to control. It is filed as ADME, cell-based. As to conditions: a549, 8 h.
For data set [21], the system named is A549. In words: Induction of apoptosis in human A549 cells assessed as early apoptotic cells at 24 uM after 48 hrs by annexin V-FITC/propidium iodide staining-based flow cytometric method (reference value: 3.87%). It is filed as functional.
Data set [22] relates to A549. Nature of the data set: Cell cycle arrest in human A549 cells assessed as accumulation at S phase at 16 uM after 48 hrs by propidium iodide staining based flow cytometric analysis (reference value: 54.85%). It counts as functional.
Data set [23] relates to A549. Nature of the data set: Induction of apoptosis in human A549 cells assessed as late apoptotic cells at 8 uM after 48 hrs by annexin V-FITC/propidium iodide staining-based flow cytometric method (reference value: 2.39%). It is filed as functional.
In data set [24] the test system is A549. In words: Induction of apoptosis in human A549 cells assessed as early apoptotic cells at 16 uM after 48 hrs by annexin V-FITC/propidium iodide staining-based flow cytometric method (reference value: 3.87%). It counts as functional.
In data set [25] the target is T1, Solute carrier family 2, facilitated glucose transporter member 1. In words: Substrate activity at GLUT1 in human A549 cells assessed cellular uptake at 20 uM after 8 hrs in presence of 100 mM D-glucose by HPLC analysis relative to control. It is filed as ADME, cell-based. Conditions: a549, 8 h.
The test system of data set [26] is A549. Nature of the data set: Induction of apoptosis in human A549 cells assessed as late apoptotic cells at 24 uM after 48 hrs by annexin V-FITC/propidium iodide staining-based flow cytometric method (reference value: 2.39%). It is filed as functional.
The test system of data set [27] is A549. Nature of the data set: Induction of apoptosis in human A549 cells assessed as live cells at 24 uM after 48 hrs by annexin V-FITC/propidium iodide staining-based flow cytometric method (reference value: 93.6%). It is filed as functional.
Data set [28] has as its system A549. In words: Induction of apoptosis in human A549 cells after 48 hrs by annexin V-FITC/propidium iodide staining-based flow cytometric method. It counts as functional, cell-based.
The subject of data set [29] is A549. Nature of the data set: Induction of apoptosis in human A549 cells assessed as necrotic cells at 24 uM after 48 hrs by annexin V-FITC/propidium iodide staining-based flow cytometric method (reference value: 0.13%). It is filed as functional.
The target in data set [30] is T1, Solute carrier family 2, facilitated glucose transporter member 1. Nature of the data set: Substrate activity at GLUT1 in human A549 cells assessed cellular uptake at 20 uM after 8 hrs in presence of 100 mM GLUT1 inhibitor EDG by HPLC analysis relative to control. It is filed as ADME, cell-based. Conditions: a549, 8 h.
For data set [31], the system named is A549. Nature of the data set: Induction of apoptosis in human A549 cells assessed as late apoptotic cells at 16 uM after 48 hrs by annexin V-FITC/propidium iodide staining-based flow cytometric method (reference value: 2.39%). It counts as functional.
The test system of data set [32] is A549. In words: Cell cycle arrest in human A549 cells assessed as accumulation at G0/G1 phase after 48 hrs by propidium iodide staining based flow cytometric analysis. It is filed as functional.

These results are taken from ChEMBL document CHEMBL4024738, “Design of antitumor agents containing carbohydrate based on GLUT1, and evaluation of antiproliferative activity” (Bioorg Med Chem Lett, 2017).

Turning to `COc1cc(CO)c(Br)c(Br)c1OCCCO[C@@H]1O[C@H](CO)[C@@H](O)[C@H]1O`, the IC50 in [1] is 11.2 µM; in the data set with A549 [2], 23.6 µM; in the data set with HepG2, 18.8 µM; in the data set with HeLa, 20.4 µM.
On to `COc1cc(COC(C)C)c(Br)c(Br)c1O`, for which, in data set [3], the Drug uptake result is “Not Active”.
Regarding `COc1cc(COC(C)C)c(Br)c(Br)c1OCCCO[C@@H]1O[C@H](CO)[C@@H](O)[C@H]1O`, the Drug uptake in data set [4] was found to be 42.1%; in [3] it was 60.3%; in data set [20], 51.6%; in data set [25], 49.1%; in data set [30], 34.6%. In addition, the IC50 in data set [1] was found to be 11.3 µM; in the data set on A549 [2], 11.4 µM; in the data set with HepG2 it was 14.7 µM; with HeLa, 19.3 µM. For the same compound, the Activity in the data set on A549 [5] came to 89.56%; in the data set on A549 [6] it was 0%; in the data set with A549 [7], 76.56%; in the data set on A549 [8] it was 59.17%; in the data set on A549 [9] it was 0.24%; with A549 [10] it was 10.25%. For the same compound, the Activity in the data set on A549 [11] is 91.8%; with A549 [13], “Dose-dependent effect”; in the data set on A549 [14], 88.1%; in the data set with A549 [15], 40.83%; in the data set on A549 [16], 4.18%; in the data set with A549 [17], 0.19%. In addition, the Activity with A549 [18] came to 0%; in the data set on A549 [19] it was 0.32%; in the data set with A549 [21], 13.7%; in the data set with A549 [22], 23.44%; in the data set on A549 [23] it was 3.75%; with A549 [24] it was 7.66%. In addition, the Activity is 4.35% in the data set with A549 [26]; 81.8% in the data set on A549 [27]; “Dose-dependent effect” in the data set on A549 [28]; 0.15% in the data set with A549 [29]; 3.91% in the data set on A549 [31]; “Dose-dependent effect” with A549 [32]. The “Ratio IC50” value with A549 [12] is 2.
